Measured values as given in PMC6315541, “Nile Tilapia Derived Antimicrobial Peptide TP4 Exerts Antineoplastic Activity Through Microtubule Disruption” (Marine Drugs, 2018).

System: α-Tubulin
Assay: Co-immunoprecipitation (TP4 antibody pull-down), LC-MS/MS and immunoblot
Type: binding, Homo sapiens
Details: lysates of A549 cells treated with 10 μg mL^−1 TP4 for 3 h
Protocol: To characterize the intracellular targets of TP4, cell lysates from A549 cells treated with 10 μg mL^−1 TP4 for 3 h were pulled down with the TP4 antibody, see Figure 1A. The dominant band was excised from the gel and analyzed by LC-MS/MS. Based on a MASCOT search for peptides found by MS, the potential binding target for TP4 was identified as α-Tubulin, see Figure 1C and Supplementary Dataset S1. […] Because tubulin is the major component of microtubules, we hypothesized that the cytotoxic effects of intracellular TP4 may be related to microtubule dynamics.
Figure 1 TP4 interacts with α-Tubulin. (A) Procedure showing the pull down of TP4 interaction partners with TP4 antibody. […] (C) Protein database searching of peptides detected by MS identified α-Tubulin as a TP4 binding partner. α-Tubulin sequence is shown. […]
Cell lysates were prepared in immunoprecipitation (IP) detergent (50 mM Tris-HCl, pH 8.0, 150 mM NaCl, 1% Igepal CA-630: Sigma-Aldrich, St. Louis, MO, USA) with protease cocktail (Roche Applied Science, Mannheim, Germany). […] The mass spectrometry data were analyzed by Mascot engine (v.2.6.0) (Matrix Science Inc., Boston, MA, USA) to identify candidate interaction targets. […] Signals were detected by enhanced chemiluminescence (Immobilon Western Chemiluminescent HRP substrate, Merck Millipore, Billerica, MA, USA) on an imaging system (UVP, BioSpectrumTM 500, Upland, CA, USA). […]

## FIHHIIGGLFSAGKAIHRLIRRRRR [TP4, synthesized Nile tilapia-derived antimicrobial peptide, Tilapia piscidin 4]
  interaction with α-Tubulin (IP with TP4 antibody, probed with α-Tubulin antibody): confirming the interaction between TP4 and α-Tubulin
